Like-named read-outs stand apart in the source and are kept apart here.
Tests used:
[1] = test system: BAD KO SV40 MEF (BAD gene knockout immortalized mouse embryonic fibroblast); assay: Cytotoxic activity in BAD gene knockout fibroblasts; type: cell-based; conditions: BAD KO SV40 MEF cell line
Source text: (§1) MCF7 (human breast carcinoma), HCT116 (human colon carcinoma), HepG2 (human hepatocellular carcinoma), SCC-9 (human oral squamous cell carcinoma), HSC-3 (human oral squamous cell carcinoma), HL-60 (human promyelocytic leukemia), K-562 (human chronic myelogenous leukemia), B16-F10 (murine melanoma), MRC-5 (human lung fibroblast), WT SV40 MEF (wild-type immortalized mouse embryonic fibroblast), and BAD KO SV40 MEF (BAD gene knockout immortalized mouse embryonic fibroblast) cell lines were obtained from the American Type Culture Collection (ATCC, Manassas, VA, USA). Cells were cultured in complete medium with appropriate supplements as recommended by ATCC. All cell lines were tested for mycoplasma using the Mycoplasma Stain Kit (Sigma-Aldrich) to validate the use of cells free from contamination. Primary cell culture of peripheral blood mononuclear cells (PBMC) was obtained by standard Ficoll density protocol. The Research Ethics Committee of the Oswaldo Cruz Foundation (Salvador, BA, Brazil) approved the experimental protocol (number 031019/2013). Cell viability was examined using trypan blue exclusion assay for all experiments.
(§2) Cell viability was quantified using the alamarBlue assay according to Ahmed et al.. Cells were inserted in 96-well plates for all experiments (7 × 10^4 cells/mL for adherent cells or 3 × 10^5 cells/mL for suspended cells in 100 μL of medium). After 24 h, xylopine was dissolved in dimethyl sulfoxide (DMSO) and added to each well and incubated for 72 h. […] Four (for cell lines) or 24 h (for PBMCs) before the end of incubation, 20 μL of a stock solution (0.312 mg/mL) of the alamarBlue (resazurin, Sigma-Aldrich Co., Saint Louis, MO, USA) was added to each well. Absorbance at 570 nm and 600 nm was measured using the SpectraMax 190 Microplate Reader (Molecular Devices, Sunnyvale, CA, USA), and the drug effect was quantified as the percentage of control absorbance.

[2] = test system: WT SV40 MEF (wild-type immortalized mouse embryonic fibroblast); assay: Cytotoxic activity in wild-type fibroblasts; type: cell-based; conditions: WT SV40 MEF cell line
Source text: as §1, §2

[3] = test system: cancer multicellular spheroids formed from HCT116 cells; assay: 3D multicellular spheroids culture, alamarBlue assay, 72 h; type: cell-based, human
Experimental: HCT116 cells were cultivated in three-dimensional (3D) multicellular spheroids. Briefly, 100 μL of a solution of cells (0.5 × 10^6 cells/mL) was inserted in 96-well plates with a cell-repellent surface (Greiner Bio-One, Kremsmünster, Austria) and cultured in complete medium plus 3% Matrigel (BD Biosciences, San Jose, CA, USA). Spheroids with stable structures had formed after three days. Then, the spheroids were exposed to a range of drug concentrations for 72 h, after which the cell viability was quantified by alamarBlue assay as described above.

[4] = test system: HCT116 cells; type: cell-based, human
Experimental: Cells were harvested in a permeabilization solution containing 0.1% Triton X-100 (Sigma Chemical Co., St Louis, MO, USA), 2 μg/mL propidium iodide (Sigma Chemical Co.), 0.1% sodium citrate, and 100 μg/mL RNAse (Sigma Chemical Co.) and incubated in the dark for 15 min at room temperature. Finally, cell fluorescence was measured by flow cytometry on a BD LSRFortessa cytometer using the BD FACSDiva software (BD Biosciences) and FlowJo software 10 (FlowJo, LCC, Ashland, OR, USA).

[5] = test system: HCT116 cells; assay: Annexin V-FITC/PI staining assay (flow cytometry), with protection assays; type: cell-based, human
Experimental: For apoptosis detection, we used the FITC Annexin V Apoptosis Detection Kit I (BD Biosciences), and the analysis was performed according to the manufacturer's instructions. The cell fluorescence was determined by flow cytometry as described above. The protection assays using a caspase-3 inhibitor (Z-DEVD-FMK, BD Biosciences), a p53 inhibitor (cyclic pifithrin-α, Cayman Chemical, Ann Arbor, MI, USA), and an antioxidant N-acetyl-L-cysteine (NAC, Sigma-Aldrich Co.) were performed. In brief, the cells were pretreated for 2 h with 50 μM Z-DEVD-FMK and 10 μM cyclic pifithrin-α and for 1 h with 5 mM NAC, followed by incubation with 14 μM xylopine for 48 h. The cells were then trypsinized and the FITC Annexin V Apoptosis Detection assay was conducted as described above.

[6] = test system: HCT116 cells; assay: Nitric oxide production (DAF-FM diacetate); type: cell-based, human; conditions: 1 h
Experimental: Nitric oxide generation was detected with 4-amino-5-methylamino-2′-,7′-difluofluorescein diacetate (DAF-FM diacetate) (Molecular Probes, Eugene, OR, USA). The cells were labeled with 3 μM of DAF-FM diacetate for 60 minutes at 37°C. Following staining cells were washed with saline and incubated for an additional 15 minutes at 37°C to allow for complete deesterification of the intracellular diacatates. Then, the nitric oxide radical was measured by flow cytometry as described above.

[7] = test system: HCT116 cells; assay: Morphological analysis (May-Grünwald-Giemsa); type: cell-based, human; conditions: 24 and 48 h, DOX 1 μM, OXA 2.5 μM
Experimental: To evaluate alterations in morphology, cells were cultured under coverslip and stained with May-Grünwald-Giemsa. Morphological changes were examined by light microscopy using Image-Pro software.

[8] = test system: human hepatocellular carcinoma HepG2 cells; design: method as in PMID 27399666; conditions: cited from earlier work
[9] = HCT116, XYL 3.5 μM, 24 h incubation
[10] = HCT116, XYL 3.5 μM, 48 h incubation
[11] = HCT116, XYL 7 μM, 24 h incubation
[12] = HCT116, XYL 7 μM, 48 h incubation
[13] = HCT116, XYL 14 μM, 24 h incubation
[14] = HCT116, XYL 14 μM, 48 h incubation

COc1ccc2c(c1)C[C@@H]1NCCc3cc4c(c-2c31)OCO4 [XYL, xylopine]
IC50 [1]: 6.4 µM
IC50 [2]: 8 µM
morphology of spheroids ([3]; 3D spheroids of HCT116, light microscopy): morphological alterations that indicate drug permeability and cytotoxicity in the 3D culture
IC50 ([3]; Homo sapiens, HCT-116, 3D spheroids of HCT116, alamarBlue, 72 h): 24.6 µM
DNA content (%) G0/G1 [4, 9]: 17.0 ± 7.0^∗ %
DNA content (%) G2/M [4, 9]: 57.2 ± 3.5^∗ %
DNA content (%) S [4, 9]: 24.7 ± 4.8%
DNA content (%) Sub-G0/G1 [4, 9]: 6.2 ± 1.9%
DNA content (%) G2/M ([4]; HCT116, XYL 3.5 μM, 24 h incubation, listed as xylopine): 57.2%
DNA content (%) G0/G1 [4, 10]: 17.0 ± 6.3^∗ %
DNA content (%) G2/M [4, 10]: 52.0 ± 6.8^∗ %
DNA content (%) S [4, 10]: 11.1 ± 2.2%
DNA content (%) Sub-G0/G1 [4, 10]: 15.2 ± 1.9%
DNA content (%) G2/M ([4]; HCT116, XYL 3.5 μM, 48 h incubation, listed as xylopine): 52.0%
DNA content (%) G0/G1 [4, 11]: 14.9 ± 4.2^∗ %
DNA content (%) G2/M [4, 11]: 58.5 ± 2.9^∗ %
DNA content (%) S [4, 11]: 23.3 ± 3.7%
DNA content (%) Sub-G0/G1 [4, 11]: 5.1 ± 1.6%
DNA content (%) G2/M ([4]; HCT116, XYL 7 μM, 24 h incubation, listed as xylopine): 58.5%
DNA content (%) G0/G1 [4, 12]: 10.3 ± 1.3^∗ %
DNA content (%) G2/M [4, 12]: 52.7 ± 3.6^∗ %
DNA content (%) S [4, 12]: 6.8 ± 2.0%
DNA content (%) Sub-G0/G1 [4, 12]: 25.9 ± 2.5^∗ %
DNA content (%) G2/M ([4]; HCT116, XYL 7 μM, 48 h incubation, listed as xylopine): 52.7%
DNA content (%) G0/G1 [4, 13]: 30.5 ± 6.0%
DNA content (%) G2/M [4, 13]: 54.0 ± 6.1^∗ %
DNA content (%) S [4, 13]: 11.1 ± 1.6%
DNA content (%) Sub-G0/G1 [4, 13]: 11.3 ± 1.4%
DNA content (%) G2/M ([4]; HCT116, XYL 14 μM, 24 h incubation, listed as xylopine): 54.0%
DNA content (%) G0/G1 [4, 14]: 14.6 ± 2.6^∗ %
DNA content (%) G2/M [4, 14]: 40.8 ± 5.7^∗ %
DNA content (%) S [4, 14]: 9.3 ± 1.7%
DNA content (%) Sub-G0/G1 [4, 14]: 33.4 ± 6.2^∗ %
DNA content (%) G2/M ([4]; HCT116, XYL 14 μM, 48 h incubation, listed as xylopine): 40.8%
xylopine-induced apoptosis on cotreatment with caspase-3 inhibitor (Z-DEVD-FMK) ([5]; HCT116, 50 μM Z-DEVD-FMK 2 h, then 14 μM xylopine 48 h): prevented
xylopine-induced increase of cell death by apoptosis on cotreatment with NAC ([5]; HCT116, 5 mM NAC 1 h, then 14 μM xylopine 48 h): prevented
early and late apoptosis ([5]; HCT116, annexin V/PI, 24 and 48 h, p < 0.05): significantly increased
necrotic cells ([5]; HCT116, annexin V/PI, 48 h, p < 0.05): significant increase
nitric oxide level [6]: increases nitric oxide
cell morphology [7]: reduction in the cell volume, chromatin condensation, and fragmentation of the nuclei
cell cycle arrest and apoptosis [8]: causes G2/M cell cycle arrest and apoptosis
